Source: patent publication US12569532B2, “Brain function regulating agent, and food or beverage product containing same” (NITTA GELATIN INC., priority 2019, dated 2026)
Where two headings read alike, the source gives them in different places. Where a SMILES comes first, the peptide text is derived from it. [ ]: non-standard residue; d: D form. Hyp = O=C(O)[C@@H]1C[C@@H](O)CN1

What was measured:
[1] = test system: cerebellar granule cells (CGC); assay: Evaluation Test 2: viability of primary-cultured CGC by MTT assay (differentiation promoting action); conditions: for Viability (%): KCl 15 mM, MTT day 7, percent of control sample with KCl 25 mM
Method: (§1) 15 to 25-week-old male and female Wistar rats were provided by purchase from CREA Japan, Inc. Thereafter, the rats were reared under the following conditions: the temperature was 23±2° C., the relative humidity was 55±10%, the lighting cycle was 12 hours, the light period started at 7:00 and ended at 19:00, and the rats were fed with a solid feed (“CE-2” (trade name) manufactured by CREA Japan, Inc) and allowed to freely access drinking water. Under the same conditions as described above, the rats were mated to obtain 7-day-old rats. Further, 3 to 8-day-old Wistar rats were provided by purchase from CREA Japan, Inc.
(§2) The Wistar rats were reared to the age of 7 to 9 days under the above-described conditions, and cerebella were then excised from these rats, and dispersed by the below-described method using the dispersion solutions shown in Table 4 (liquids I to V). In this way, dispersions containing granule cells and other cerebral nerve cells (hereinafter, these cells are also referred to collectively as “cerebellar granule cells (CGC)”) from the cerebella. The cerebellar granule cells (CGC) are cerebral nerve cells. Thereafter, the CGC contained in the dispersions was cultured. […] The method for preparing the cerebellar granule cells (CGC) is as follows.
(§3) First, ten of the 7 to 9-day-old rats were decapitated, and cerebella were excised in the clean bench, and then formed into minced paste with a razor after removal of unnecessary tissues, blood vessels, chorionic membranes and the like. Liquid I was added to the paste to give a suspension, and the suspension was centrifuged at 1,000 rpm for 30 seconds to obtain a first separate liquid containing a supernatant and a cell group. The supernatant was removed from the first separate liquid, liquid II pre-warmed to 37° C. in a thermostatic bath was then added to the remaining cell group little by little, and the mixture was stirred, transferred into a 50 mL medium bottle, and further stirred at 37° C. for 15 minutes to perform tissue digestion with trypsin.
(§4) Next, liquid IV was added to the medium bottle to deactivate the trypsin, and the mixture was centrifuged at 1,000 rpm for 30 seconds to obtain a second separate liquid containing a supernatant and a cell group. The supernatant was removed from the second separate liquid, and a small amount of liquid III was then added to the remaining cell group with a Pasteur pipette to disperse the cell group. Thereafter, the mixture was left standing for 15 minutes to obtain a third separate liquid containing a supernatant and a cell group, and the supernatant was taken into liquid V. To the cell group remaining in the third separate liquid, a small amount of liquid III was added to redisperse the cell group. Thereafter, the mixture was left standing for 5 to 10 minutes to obtain a fourth separate liquid containing a supernatant and a cell group, and the supernatant was taken into liquid V containing the supernatant of the third separate liquid.
(§5) Liquid V containing the supernatant of the third separate liquid and the supernatant of the fourth separate liquid was centrifuged at 1,000 rpm for 5 minutes to obtain a fifth separate liquid containing a supernatant and a cell group. The supernatant was removed from the fifth separate liquid, a basal medium (BME: Basal Medium Eagle manufactured by Sigma-Aldrich Co. LLC) was then added to the remaining cell group, and the mixture was stirred to obtain a mixed liquid containing cerebellar granule cells (CGC) and BME. Thereafter, the mixed liquid was stained with a trypan Blue solution with a concentration of 0.4 mass %, and the number of the stained cells and the viability thereof were measured.

[2] = test system: cerebellar granule cells (CGC); conditions: Wistar, rat, 6 days
Method: as §1, §2, §3, §4, §5

[3] = test system: PC12 cells derived from a rat adrenal pheochromocytoma; conditions: PTL 2; cited from earlier work
rats = conditions: when transferred into the cerebrospinal fluid, NPL 2; cited from earlier work
[4] = test system: cerebellar granule cells (CGC); conditions: Wistar, rat, 6 days; remark: listed apart in the source
Method: Next, K+5 mM serum (+) BME was added to the mixed liquid in such a manner that the cell density of living cells was 1.2×10^5 cells/mL, and the mixture was suspended to obtain a culture sample. The culture sample was seeded at 0.766 mL per well in a 12-well plate pre-coated with poly-L-lysin (PLL) with a concentration of 50 μg/mL, and was cultured in an incubator environment of CO2 with a concentration of 5 vol % at 37° C.
On day 1 after the start of culture, to each well was added cytosine β-D-arabinofuranoside (AraC) to a final concentration of 10 μM for the purpose of suppressing growth of non-neuronal cells while maintaining only CGC. Further, in the below-described control sample, KCl was added to a final concentration of 25 mM. In other samples (samples containing the peptides or amino acids shown in Tables 5 to 7 below), KCl was added with an adjustment made to a final concentration of 15 mM.
Specifically, the percent ratio of the number of living cells in each sample to the number of living cells in the control sample having a KCl concentration of 25 mM was determined, and subjected to statistical processing to evaluate significance of the differentiation promoting action on CGC. […]

| Molecule | Viability (%) ([2]; 0.1 μM) | Viability (%) ([2]; 1 μM) | Viability (%) ([2]; 10 μM) | Viability (%) ([2]; 100 μM) | Viability (%) ([2]; 1000 μM) | further results |
| --- | --- | --- | --- | --- | --- | --- |
| NCC(=O)N1CCC[C@H]1C(=O)N1C[C@H](O)C[C@H]1C(=O)O [GPO] (H-Gly-Pro-[Hyp]-OH) | – | – | – | – | – | Viability (%) ([1]; 0.1 μM added days 1 and 4): 56.3%; Viability (%) ([1]; 1 μM added days 1 and 4): 58.4%; Viability (%) ([1]; 10 μM added days 1 and 4): 59.0%; Viability (%) ([1]; 100 μM added days 1 and 4): 55.8%; Viability (%) ([1]; 1000 μM added days 1 and 4): 61.5% |
| NCC(=O)N1CCC[C@H]1C(=O)O [GP] (H-Gly-Pro-OH; N-terminus and C-terminus assumed) | – | – | – | – | – | Viability (%) ([1]; 0.1 μM added days 1 and 4): 48.4%; Viability (%) ([1]; 1 μM added days 1 and 4): 61.2%; Viability (%) ([1]; 10 μM added days 1 and 4): 65.7%; Viability (%) ([1]; 100 μM added days 1 and 4): 63.4%; Viability (%) ([1]; 1000 μM added days 1 and 4): 72.2% |
| N[C@@H](CCC(=O)N[C@@H](CS)C(=O)NCC(=O)O)C(=O)O [Glutathione, glutathione] | – | – | – | – | – | Viability (%) ([1]; 0.01 μM added days 1 and 4): 73.9%; Viability (%) ([1]; 0.1 μM added days 1 and 4): 63.5%; Viability (%) ([1]; 1 μM added days 1 and 4): 63.5%; Viability (%) ([1]; 10 μM added days 1 and 4): 63.6%; Viability (%) ([1]; 100 μM added days 1 and 4): 60.0%; Viability (%) ([1]; 1000 μM added days 1 and 4): 67.1% |
| BDNF: brain-derived neurotrophic factor, Reference Example | – | – | – | – | – | Viability (%) ([1]; 100 ng/mL added days 1 and 4): 76.6% |
| CN[C@H](CC(=O)O)C(=O)O [NMDA, N-methyl-D-aspartic acid] | – | – | – | – | – | viability at 100 µM ([1]; Rattus norvegicus, 168 h): 93.4% |
| N[C@@H](CCC(=O)O)C(=O)N1C[C@H](O)C[C@H]1C(=O)O [EO] (H-Glu-[Hyp]-OH; N-terminus and C-terminus assumed) | 52.9% | 54.8% | 86.8% | 81.2% | 86.7% | – |
| O=C(O)CC[C@@H]1NC(=O)[C@@H]2C[C@@H](O)CN2C1=O [C-EO] | 51.3% | 52.0% | 64.8% | 65.0% | 69.3% | – |
| O=C1[C@@H]2C[C@@H](O)CN2C(=O)[C@@H]2CCCN12 [C-PO] | 55.7% | 58.4% | 73.2% | 70.6% | 68.4% | – |
| IGF-1: listed in Table 5 only, not explained in the text | – | – | – | – | – | Viability (%) ([1]; 100 ng/mL added days 1 and 4): 67.1% |
| O=C(O)CNC(=O)[C@@H]1C[C@@H](O)CN1 [OG] (H-[Hyp]-Gly-OH) | – | – | – | – | – | Viability (%) ([1]; 0.1 μM added days 1 and 4): 54.5%; Viability (%) ([1]; 1 μM added days 1 and 4): 61.8%; Viability (%) ([1]; 10 μM added days 1 and 4): 77.6%; Viability (%) ([1]; 100 μM added days 1 and 4): 72.8%; Viability (%) ([1]; 1000 μM added days 1 and 4): 71.1% |
| Gly-Pro-Ala | – | – | – | – | – | neurogenesis promoting action [3]: has a neurogenesis promoting action |
| O=C1NCC(=O)N2CCC[C@@H]12 [C-GP] | – | – | 51.2% | 46.4% | 53.3% | – |
| O=C(O)[C@@H]1C[C@@H](O)CN1C(=O)[C@@H]1CCCN1 [PO, Pro-Hyp] (H-Pro-[Hyp]-OH; N-terminus and C-terminus assumed) | 52.6% | 51.8% | 76.3% | 72.9% | 74.0% | antidepressant effect (rats): exhibited an antidepressant effect |
| O=C1N[C@@H](Cc2cnc[nH]2)C(=O)N2CCC[C@@H]12 [C-HP] | – | – | 65.1% | 63.9% | 69.2% | – |
| C[C@H](N)C(=O)N1C[C@H](O)C[C@H]1C(=O)O [AO] (H-Ala-[Hyp]-OH; N-terminus and C-terminus assumed) | 55.1% | 57.0% | 66.1% | 64.7% | 65.9% | – |
| O=C1NCC(=O)N2C[C@H](O)C[C@@H]12 [C-OG] | 57.8% | 63.2% | 54.2% | 50.1% | 62.7% | – |
| N[C@@H](CCC(=O)O)C(=O)O [Glutamic acid, glutamic acid] | – | – | – | – | – | viability at 10 µM ([1]; Rattus norvegicus, 168 h): 58.1%; viability at 100 µM ([1]; Rattus norvegicus, 168 h): 52.4%; viability at 1000 µM ([1]; Rattus norvegicus, 168 h): 42.4% |
| N[C@@H](CCC(=O)O)C(=O)N1C[C@H](O)C[C@H]1C(=O)NCC(=O)O [EOG, Glu-Hyp-Gly] (H-Glu-[Hyp]-Gly-OH; N-terminus and C-terminus assumed) | 69.9% | – | – | 74.4% | 77.7% | Viability (%) ([4]; 3 μM): 67.2%; Viability (%) ([4]; 7 μM): 72.7% |
